Test results published in patent US6525089B1, “Pharmaceutical composition containing decursin” (Binex Co., Ltd., priority 1998, dated 2003).

Assays:
[1] = test system: SD rats; experiment: BUN and creatinine in blood as markers of nephrotoxicity, cisplatin-treated rats; format: in vivo, rat
Experimental: The detailed test methods were summarized hereinafter. BUN (blood urea nitrogen) and creatinine as a marker of nephrotoxicity in the blood, sGPT as a marker of hepatotoxicity, occult blood in the urine, bilirubin, urobilinogen, ketone, protein, nitrite, glucose, pH and specific gravity were determined as follows. […] BUN value was measured using the BUN measurement kit (Youngdong Pharm. Co. Ltd., Korea) in the following procedure. 0.1 ml of urease was added to 20 ml of buffer solution to obtain enzymatic buffer solution. […] The two test tubes were incubated at 37° C. for 15 minutes. Then 2 ml of color-forming solution was added into each test tube and incubated again at 37° C. for 5 minutes. The absorbance was measured at 570 nm to determine the amount of BUN. (2) Measurement of Creatinine Creatinine value was measured using the creatinine measurement kit (Youngdong, Pharm. Co. Ltd., Korea) in the following procedure. 4 ml of tungsten solution was added in 0.5 ml of serum sample to be tested, and stirred vigorously and then left for 10 minutes. […]. Every 3 ml of the supernatant, reference solution of creatinine and distilled water (for blank test) was put to the separate test tubes, followed by the addition of picrate solution (1 ml each). Then 0.5 ml of 1.4N NaOH was added in each tube and stirred to measure the absorbance at 515 nm exactly after the correct lapse of 15 minutes. A total of 10 male SD rats (body weight: 200 g) were used for this experiment. […] The animals were sacrificed and again weighed four days after treatment. […] Blood samples were also taken and left to sit for 30 minutes to isolate the sera, which was used to determine BUN, creatinine and sGPT values as markers of […].

[2] = Body weight, alloxan-treated mice; format: in vivo; settings: ICR mice, alloxan + decursin 50 mg/kg orally for 10 days
Experimental: 2 days after ICR mice were given alloxan (75 mg/kg, i.v.), their glucose levels at fasting were measured to select high-glucose mice. The high-glucose mice were divided into two groups; physiological saline solution was given to one group, while decursin was orally administered to the other group at a dose of 50 mg/kg for 10 days. The alloxan-free group was also orally given physiological saline solution for 10 days. The body weighs were checked periodically, together with urinary tests. To isolate their sera and kidney, mice were slightly anesthetized with ether and their abdomens were dissected. The blood samples were collected from heart to isolate the sera. The kidney was perfused with 0.9% NaCl and isolated after removal of the blood. Then the weight of right kidney was measured. Further, to measure the protein amount from the kidney tissues, these tissues were assayed according to the Bradford method using Bio-Rad protein assay kit in the presence of bovine serum albumin as a reference standard. […] The supernatant was collected to measure the absorbance at 532 nm. […] The supernatant was collected to measure the absorbance at 532 nm. […]

[3] = test system: U-937 cells; experiment: Growth inhibition test (trypan blue exclusion); format: cell-based, human
Experimental: U-937 cells, optioned from Korea Cell Line Bank, was cultured in RPMI 1640 medium (Sigma Co., R-6504) supplemented with 10% fetal bovine serum (FBS). The medium was exchanged every 5 day by 70%. U-937 cells were inoculated into a cell culture dish at concentration of 2×10^5 cells/ml. Then decursin added into the dish at concentration of 10^−8˜10^−6M, then the cells were cultured for 4 days. Trypan blue exclusion test was performed to determine the number of live cells using a hemacytometer, and the percentage of cancer-cell growth inhibition was calculated. Then, the differentiation was induced by treating with 10^−2M diluted ethanol solution containing various amount of decursin in the medium.

[4] = test system: U-937 cells; experiment: Phagocytosis test; format: cell-based, human; settings: 1 × 10^−7M, incubated 4 days
Experimental: U-937 cells were plated on a cell culture dish at a concentration of 2×10^5 cells/ml in a medium containing 10^−7M decursin and incubated in a 5% CO2 incubator at 37° C.
In the phagocytosis test, 10^6 cells were well stirred and pelleted by centrifugation at 2000 rpm for 5 minutes. 1 ml of 0.2% serum free medium solution in polystyrene particle were added to the pellets, swayed and incubated at 37° C. for 4 hours. After being washed with phosphate buffered saline (PBS) three times, cell pellets were harvested and then about 200 μl of DPBS was added. The solution was lightly swayed and checked under a microscope to observe a minimum number of 200 cells. The number of cells containing the particles was calculated by percentage.
The results of phagocytosis test designed to assess the functional change according to differentiation of U-937 cells was shown in the following Table 8.

[5] = test system: normal cells (LLC-PK1); experiment: Cytotoxicity test on normal cells; format: cell-based; settings: 3 days
Experimental: To determine the cytotoxicity of decursin on normal cells, they were sub-cultured in a medium-199 containing, 3% fetal bovine serum (FBS), penicillin (100 U/ml) and streptomycin (100 μg/ml) every 3 to 4 day. Then cells were treated with trypsin to prepare a cell suspension. 1 ml of the cell suspension was seeded on 24-well plate at a concentration of 2×10^5 in cells/ml an d attached to the medium for one day. After the supernatant was removed, 1 ml of decursin was added to the cell culture medium at appropriate concentrations and incubated for 3 days to count the cell numbers.

[6] = post-treated: decursin 17.4 mg/kg i.p. 1, 24, 48 h after cisplatin 5.8 mg/kg i.p.
[7] = pre-treated: decursin 17.4 mg/kg i.p. 1, 24, 48 h prior to cisplatin 5.8 mg/kg i.p.

CC(C)=CC(=O)O[C@H]1Cc2cc3ccc(=O)oc3cc2OC1(C)C [decursin]
BUN [1, 6]: 55.2 ± 2.1 mg/dL
Creatinine [1, 6]: 2.08 ± 0.52 mg/dL
reduction of nephrotoxicity (creatinine) compared with the control group receiving cisplatin ([1]; post-treatment group): about 40%
BUN [1, 7]: 17.5 ± 2.8 mg/dL
Creatinine [1, 7]: 0.74 ± 0.29 mg/dL
weight loss of the alloxan-treated group [2]: significantly reduced
Growth inhibition rate (%) ([3]; 1 × 10^−7M, 4 days (96 hours)): 42.0 ± 6.4%
inhibition at 1 µM ([3]; Homo sapiens, U-937, 96 h, 1 × 10^−6M, 4 days (96 hours), read-out: Growth inhibition rate (%)): 52 ± 2.8%
inhibition at 0.1 µM ([3]; Homo sapiens, U-937, 96 h, 1 × 10^−7M, 4 days (96 hours), read-out: Growth inhibition rate (%)): ~33%
inhibition at 0.01 µM ([3]; Homo sapiens, U-937, 96 h, 1 × 10^−8M, 4 days (96 hours), read-out: Growth inhibition rate (%)): 31 ± 7.8%
inhibition at 0.5 µM ([3]; Homo sapiens, U-937, 96 h, 5 × 10^−7M, 4 days (96 hours), read-out: Growth inhibition rate (%)): 48 ± 7.1%
inhibition at 0.05 µM ([3]; Homo sapiens, U-937, 96 h, 5 × 10^−8M, 4 days (96 hours), read-out: Growth inhibition rate (%)): 35.5 ± 7.4%
growth inhibition rate (inhibitory effect) ([3]; after 96 hours, concentration of 10^−8˜10^−6M): 30-50%
Phagocytosis test: cells showing phagocytosis activity [4]: 28.6%
Phagocytosis test: cells showing phagocytosis activity ([4]; listed as Decursin): 28.6 ± 1.2%
Growth inhibition rate (%) ([5]; 1 × 10^−6M): 0.0 ± 0.0%
Growth inhibition rate (%) ([5]; 1 × 10^−7M): 0.0 ± 0.0%
Growth inhibition rate (%) ([5]; 1 × 10^−8M): 0.0 ± 0.0%
Growth inhibition rate (%) ([5]; 5 × 10^−7M): 0.0 ± 0.0%
Growth inhibition rate (%) ([5]; 5 × 10^−8M): 0.0 ± 0.0%
